Source: PubChem BioAssay (NCI)
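GI50 = concentration required for 50% inhibition of growth. Definition used: TGI = concentration required for complete inhibition of growth.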

Assays:
Test in all cases: growth of human tumour cells (NCI), 384-well format
[1] = tested on: MDA-MB-435 melanoma
[2] = tested on: TK-10 renal
[3] = tested on: A549 NSCLC
[4] = tested on: SK-MEL-5 melanoma
[5] = tested on: SK-OV-3 ovarian
[6] = tested on: NCI-H226 lung
[7] = tested on: 786-0 renal
[8] = tested on: CAKI-1 renal
[9] = tested on: T-47D breast
[10] = tested on: HL-60(TB) leukemia
[11] = tested on: NCI-H522 lung
[12] = tested on: HCC-2998 colon
[13] = tested on: HT29 colon
[14] = tested on: SF-539 CNS
[15] = tested on: NCI-H460 NSCLC
[16] = tested on: MDA-MB-468 breast
[17] = tested on: K-562 leukemia
[18] = tested on: A498 renal
[19] = tested on: NCI-H322M lung
[20] = tested on: OVCAR-4 ovarian
[21] = tested on: SR leukemia
[22] = tested on: HOP-62 NSCLC
[23] = tested on: SF-295 CNS
[24] = tested on: MOLT-4 leukemia
[25] = tested on: UO-31 renal
[26] = tested on: IGROV1 ovarian
[27] = tested on: SN12C renal
[28] = tested on: UACC-257 melanoma
[29] = tested on: MALME-3M melanoma

CCN1[C@@H](C(=O)NC23CCC(C(=O)O)(CC2)CC3)[C@H](c2cccc(Cl)c2F)[C@]2(C(=O)Nc3cc(Cl)ccc32)C12CCCCC2 gave a GI50 [1] of 2.26 µM, a TGI [1] of 5.65 µM and a GI50 [2] of 2.89 µM. The TGI [2] was 11.4 µM, the GI50 [3] was 0.0452 µM and the TGI [3] was 1.14 µM. The GI50 [4] was 0.239 µM, the TGI [4] was 1.81 µM and the GI50 [5] was 2.96 µM. It also gave a TGI [5] of 13.7 µM, a GI50 [6] of under 0.01 µM and a TGI [6] of 0.0817 µM. It also gave a GI50 [7] of 3.49 µM, a TGI [7] of 13.5 µM and a GI50 [8] of under 0.01 µM. The TGI [8] was 0.418 µM, the GI50 [9] was 1.62 µM and the TGI [9] was 6.27 µM. It also gave a GI50 [10] of 2.03 µM, a TGI [10] of 3.46 µM and a GI50 [11] of 2.41 µM. For the same compound, the TGI [11] was 6.92 µM, the GI50 [12] was 1.27 µM and the TGI [12] was 2.91 µM. For the same compound, the GI50 [13] was 3.52 µM, the TGI [13] was 13.9 µM and the GI50 [14] was 2.12 µM. It also gave a TGI [14] of 5.19 µM, a GI50 [15] of 0.0294 µM and a TGI [15] of 1.08 µM. For the same compound, the GI50 [16] was 1.7 µM, the TGI [16] was 3.61 µM and the GI50 [17] was 2.83 µM. For the same compound, the TGI [17] was 11 µM, the GI50 [18] was 0.0136 µM and the TGI [18] was 1.09 µM. For the same compound, the GI50 [19] was 3.87 µM, the TGI [19] was 15.1 µM and the GI50 [20] was 2.22 µM. It also gave a TGI [20] of 7.32 µM, a GI50 [21] of under 0.01 µM and a GI50 [22] of 1.59 µM. The TGI [22] was 4.19 µM, the GI50 [23] was 1.24 µM and the TGI [23] was 2.67 µM. For the same compound, the GI50 [24] was under 0.01 µM, the GI50 [25] was 0.0193 µM and the TGI [25] was 0.161 µM. It also gave a GI50 [26] of 0.244 µM, a TGI [26] of 2.77 µM and a GI50 [27] of 3.53 µM. For the same compound, the TGI [27] was 12.7 µM, the GI50 [28] was 0.148 µM and the TGI [28] was 0.431 µM. It also gave a GI50 [29] of 0.014 µM and a TGI [29] of 0.659 µM.
